# Assay results from ChEMBL document CHEMBL1201862, “PubChem BioAssay data set” (2004).
# The source made the active and inactive calls.
# What was measured:
# [1] = inhibitors of Bluetongue virus cytopathic effect, confirmation, arbovirus, BSR cells (AID 1250); format: functional;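 further: protection from viral cytopathic effect measured as cell viability by ATP luminescence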
# [2] = molecular target: T1, Alkaline phosphatase, tissue-nonspecific isozyme (Homo sapiens, UniProt P05186)
# T1 sequence (P05186 whole entry): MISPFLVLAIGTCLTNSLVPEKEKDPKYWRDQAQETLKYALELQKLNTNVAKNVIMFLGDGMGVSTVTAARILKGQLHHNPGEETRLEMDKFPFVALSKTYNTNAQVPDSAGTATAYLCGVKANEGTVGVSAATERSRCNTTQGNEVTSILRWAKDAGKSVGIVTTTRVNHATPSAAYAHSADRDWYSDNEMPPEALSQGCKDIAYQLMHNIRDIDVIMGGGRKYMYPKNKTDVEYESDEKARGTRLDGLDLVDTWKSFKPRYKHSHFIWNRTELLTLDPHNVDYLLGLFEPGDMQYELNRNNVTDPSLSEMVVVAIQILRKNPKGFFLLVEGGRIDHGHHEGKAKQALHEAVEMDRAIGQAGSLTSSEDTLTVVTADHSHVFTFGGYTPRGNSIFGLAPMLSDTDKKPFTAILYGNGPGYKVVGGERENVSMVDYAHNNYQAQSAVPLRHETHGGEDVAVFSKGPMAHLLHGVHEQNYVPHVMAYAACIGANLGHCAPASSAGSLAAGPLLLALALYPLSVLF
# [3] = molecular target: T2, Apoptotic protease-activating factor 1 (Homo sapiens, UniProt O14727); format: functional
# T2 sequence (O14727 whole entry): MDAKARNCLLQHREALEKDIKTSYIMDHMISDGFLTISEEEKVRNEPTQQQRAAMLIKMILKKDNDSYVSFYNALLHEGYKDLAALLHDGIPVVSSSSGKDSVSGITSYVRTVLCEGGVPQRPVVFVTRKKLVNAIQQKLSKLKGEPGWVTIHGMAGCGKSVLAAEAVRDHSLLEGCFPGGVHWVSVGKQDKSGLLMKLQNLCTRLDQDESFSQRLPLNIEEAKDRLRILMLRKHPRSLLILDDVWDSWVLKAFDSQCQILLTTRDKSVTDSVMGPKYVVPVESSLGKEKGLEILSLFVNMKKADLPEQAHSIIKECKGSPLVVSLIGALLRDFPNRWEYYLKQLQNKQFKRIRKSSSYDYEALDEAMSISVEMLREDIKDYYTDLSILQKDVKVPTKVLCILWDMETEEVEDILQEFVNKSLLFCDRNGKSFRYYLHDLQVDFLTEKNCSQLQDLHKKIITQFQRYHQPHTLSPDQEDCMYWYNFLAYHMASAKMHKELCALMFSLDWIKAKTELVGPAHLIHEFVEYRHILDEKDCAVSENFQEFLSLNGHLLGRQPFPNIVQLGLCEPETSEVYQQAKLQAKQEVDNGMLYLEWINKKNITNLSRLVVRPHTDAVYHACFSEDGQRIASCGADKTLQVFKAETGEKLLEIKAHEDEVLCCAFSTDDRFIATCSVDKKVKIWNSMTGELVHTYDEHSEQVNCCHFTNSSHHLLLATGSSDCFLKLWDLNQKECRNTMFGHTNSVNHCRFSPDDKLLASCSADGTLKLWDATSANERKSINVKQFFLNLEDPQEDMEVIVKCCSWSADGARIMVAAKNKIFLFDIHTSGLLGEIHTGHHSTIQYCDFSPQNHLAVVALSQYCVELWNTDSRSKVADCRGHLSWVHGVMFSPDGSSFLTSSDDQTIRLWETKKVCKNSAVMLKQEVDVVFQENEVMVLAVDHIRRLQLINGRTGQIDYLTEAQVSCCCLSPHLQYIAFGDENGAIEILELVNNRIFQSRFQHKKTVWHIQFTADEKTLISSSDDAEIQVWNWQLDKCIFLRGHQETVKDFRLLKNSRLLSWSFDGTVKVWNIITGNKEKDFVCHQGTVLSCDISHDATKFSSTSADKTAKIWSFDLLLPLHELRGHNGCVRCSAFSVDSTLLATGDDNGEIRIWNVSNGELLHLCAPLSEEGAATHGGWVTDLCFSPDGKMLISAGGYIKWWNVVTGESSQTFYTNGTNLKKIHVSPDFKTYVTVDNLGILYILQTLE
# H9c2 = assay: cells; format: functional, cell-based; conditions: Rattus norvegicus, H9c2, Myocardium;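 further: confirmatory concentration-response retest of ultra-high-throughput screening hits for modulation of myocardial damage; cell death induced by hydrogen peroxide oxidative stress; compound pretreatment for 60 min then peroxide exposure for 2 h; potency is for protecting the cells against peroxide damage rather than for killing them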
# [4] = molecular target: T3, Neuropeptide Y receptor type 2 (Homo sapiens, UniProt P49146); format: functional, cell-based;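 further: HEK293 cells expressing the receptor and a CNG channel; stimulus was NPY near EC95 followed by isoproterenol to raise cAMP; antagonist potency measured as restoring cAMP signal that NPY suppresses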
# T3 sequence (P49146 whole entry): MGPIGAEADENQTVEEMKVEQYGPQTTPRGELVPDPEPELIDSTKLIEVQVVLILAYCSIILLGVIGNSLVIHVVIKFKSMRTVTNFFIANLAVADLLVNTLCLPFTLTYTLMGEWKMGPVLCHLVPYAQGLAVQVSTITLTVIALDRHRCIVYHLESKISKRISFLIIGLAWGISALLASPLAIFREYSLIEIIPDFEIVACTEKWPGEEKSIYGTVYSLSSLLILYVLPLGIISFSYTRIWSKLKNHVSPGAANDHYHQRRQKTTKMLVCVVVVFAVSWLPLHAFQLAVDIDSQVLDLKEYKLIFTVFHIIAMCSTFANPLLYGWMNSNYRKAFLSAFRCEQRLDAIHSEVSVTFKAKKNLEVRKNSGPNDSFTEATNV
# [5] = molecular target: T4, Luciferin 4-monooxygenase (Photinus pyralis, UniProt P08659); assay: firefly luciferase enzyme inhibitors, dose response, biochemical, luminescence (AID 1891)
# [6] = molecular target: T5, Neuropeptide Y receptor type 1 (Homo sapiens, UniProt P25929); format: functional;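 further: HEK293 cells with a CNG channel challenged with NPY then isoproterenol; potency as antagonist that reverses NPY suppression of cAMP signal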
# T5 sequence (P25929 whole entry): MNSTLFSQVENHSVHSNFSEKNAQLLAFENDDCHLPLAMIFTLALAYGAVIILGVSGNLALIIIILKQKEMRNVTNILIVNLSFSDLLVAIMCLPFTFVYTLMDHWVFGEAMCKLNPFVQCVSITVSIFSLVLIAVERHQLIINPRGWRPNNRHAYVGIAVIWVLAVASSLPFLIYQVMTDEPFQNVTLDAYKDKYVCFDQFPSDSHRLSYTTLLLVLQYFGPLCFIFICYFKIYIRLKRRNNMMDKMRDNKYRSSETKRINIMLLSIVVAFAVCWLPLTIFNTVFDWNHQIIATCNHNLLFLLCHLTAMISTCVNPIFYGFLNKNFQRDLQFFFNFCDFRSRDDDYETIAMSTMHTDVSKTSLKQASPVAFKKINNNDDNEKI
# [7] = Luminescence Cell-Based Dose Confirmation HTS to Identify Inhibitors of Platelet Dense Granule Release. [Related pubchem assays: 1663 (Primary HTS), 1678 (Summary of Project)]; format: functional
# [8] = molecular target: T6, Eukaryotic translation initiation factor 2-alpha kinase 3 (Homo sapiens, UniProt Q9NZJ5); assay: Dose response cell-based high-throughput screening assay to measure PERK inhibition. [Related pubchem assays: 1416 ]; format: functional
# T6 sequence (Q9NZJ5 whole entry): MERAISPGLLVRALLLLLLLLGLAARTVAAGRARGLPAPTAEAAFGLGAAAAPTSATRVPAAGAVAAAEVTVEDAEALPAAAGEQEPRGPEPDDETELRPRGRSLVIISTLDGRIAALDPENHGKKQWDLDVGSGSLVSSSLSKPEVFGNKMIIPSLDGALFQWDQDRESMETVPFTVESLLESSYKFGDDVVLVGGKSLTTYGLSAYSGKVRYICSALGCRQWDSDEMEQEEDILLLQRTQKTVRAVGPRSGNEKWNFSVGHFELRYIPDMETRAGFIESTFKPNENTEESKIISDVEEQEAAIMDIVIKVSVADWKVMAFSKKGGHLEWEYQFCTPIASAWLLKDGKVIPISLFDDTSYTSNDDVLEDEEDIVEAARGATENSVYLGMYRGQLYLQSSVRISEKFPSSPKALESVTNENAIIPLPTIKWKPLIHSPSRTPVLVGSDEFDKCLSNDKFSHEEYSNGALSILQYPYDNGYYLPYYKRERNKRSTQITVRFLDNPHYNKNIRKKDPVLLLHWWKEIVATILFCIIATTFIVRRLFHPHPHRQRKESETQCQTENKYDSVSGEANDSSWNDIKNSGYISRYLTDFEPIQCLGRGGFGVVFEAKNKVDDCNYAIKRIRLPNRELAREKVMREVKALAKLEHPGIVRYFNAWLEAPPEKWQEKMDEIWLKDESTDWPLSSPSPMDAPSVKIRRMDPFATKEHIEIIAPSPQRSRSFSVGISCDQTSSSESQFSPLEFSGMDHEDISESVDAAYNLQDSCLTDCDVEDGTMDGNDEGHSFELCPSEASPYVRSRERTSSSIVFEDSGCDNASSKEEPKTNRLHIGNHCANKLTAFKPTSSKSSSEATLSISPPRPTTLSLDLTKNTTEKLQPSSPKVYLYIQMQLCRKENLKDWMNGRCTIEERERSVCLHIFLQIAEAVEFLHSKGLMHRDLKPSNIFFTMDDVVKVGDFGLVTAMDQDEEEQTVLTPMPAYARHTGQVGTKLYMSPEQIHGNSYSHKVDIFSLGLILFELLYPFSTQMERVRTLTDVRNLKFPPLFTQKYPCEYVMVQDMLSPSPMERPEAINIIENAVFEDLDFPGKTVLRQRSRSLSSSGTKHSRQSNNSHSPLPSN
# [9] = molecular target: T6, Eukaryotic translation initiation factor 2-alpha kinase 3; assay: Counterscreen assay for PERK inhibitors: Dose response cell-based high throughput screening assay to measure inhibition of PERK at 6 hours. [Related pubchem assays: 1522, 1416 ]; format: functional
# [10] = molecular target: T7, Eukaryotic translation initiation factor 4H (Homo sapiens, UniProt Q15056); assay: human eIF4H binding inhibitors, primary screen, translation initiation inhibitor project, biochemical, uHTS, fluorescence polarization (AID 2012)
# [11] = molecular target: T8, Polyadenylate-binding protein 1 (Homo sapiens, UniProt P11940); assay: PABP inhibition in translation initiation, SAR follow-up (AID 435018); format: functional
# [12] = molecular target: T7, Eukaryotic translation initiation factor 4H; assay: eIF4H inhibition in translation initiation, SAR follow-up (AID 435011); format: functional
# [13] = molecular target: T8, Polyadenylate-binding protein 1; assay: PABP poly(A) RNA binding inhibitors, primary screen, biochemical, fluorescence polarization, uHTS (AID 2014)
# [14] = molecular target: T9, RNA-binding protein pos-1 (Caenorhabditis elegans, UniProt G5EF15); assay: inhibitors of POS-1/mex-3 RNA binding, dose response, biochemical, fluorescence polarization (AID 1964);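 further: purified POS-1 fused to maltose binding protein made in E. coli; potency of compounds blocking POS-1 binding to fluorescent RNA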
# T9 sequence (G5EF15 whole entry): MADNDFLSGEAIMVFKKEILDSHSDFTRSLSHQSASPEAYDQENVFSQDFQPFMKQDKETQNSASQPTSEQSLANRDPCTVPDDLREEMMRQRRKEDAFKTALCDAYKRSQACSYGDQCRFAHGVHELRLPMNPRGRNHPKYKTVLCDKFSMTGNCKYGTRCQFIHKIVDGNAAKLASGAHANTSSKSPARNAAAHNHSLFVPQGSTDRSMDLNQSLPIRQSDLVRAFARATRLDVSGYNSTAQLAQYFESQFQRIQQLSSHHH
# [15] = molecular target: T4, Luciferin 4-monooxygenase; assay: Counter Screen for Luciferase-based Assay Positives. [Related pubchem assays: 620, 618, 411 ]
# HT-1080 = assay: cytotoxicity in HT1080 fibrosarcoma cells, cell-based, fluorescence readout (AID 620); format: functional; conditions: Homo sapiens
# HeLa = assay: HeLa cell cytotoxicity, dose response, cytotoxicity control, 24 h, cherry-picked samples (AID 504726); format: functional, cell-based; conditions: Homo sapiens;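 further: potency for cytotoxicity as loss of luminescence signal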
# T4 sequence (P08659 whole entry): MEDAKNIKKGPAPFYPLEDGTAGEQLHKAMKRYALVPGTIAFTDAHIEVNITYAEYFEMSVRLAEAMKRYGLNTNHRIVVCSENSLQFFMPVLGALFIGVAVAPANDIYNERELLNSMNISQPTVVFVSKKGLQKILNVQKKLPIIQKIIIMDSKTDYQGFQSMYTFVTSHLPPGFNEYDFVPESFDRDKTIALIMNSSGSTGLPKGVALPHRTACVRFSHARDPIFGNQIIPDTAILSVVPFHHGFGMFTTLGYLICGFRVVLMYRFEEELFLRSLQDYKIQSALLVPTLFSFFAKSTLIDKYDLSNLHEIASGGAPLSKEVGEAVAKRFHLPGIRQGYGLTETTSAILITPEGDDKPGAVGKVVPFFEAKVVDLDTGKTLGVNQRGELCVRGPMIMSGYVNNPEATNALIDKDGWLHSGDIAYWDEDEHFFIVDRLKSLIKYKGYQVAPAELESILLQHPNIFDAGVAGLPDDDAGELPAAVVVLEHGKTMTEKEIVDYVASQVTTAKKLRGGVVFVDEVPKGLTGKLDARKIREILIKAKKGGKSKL
# T8 sequence (P11940 whole entry): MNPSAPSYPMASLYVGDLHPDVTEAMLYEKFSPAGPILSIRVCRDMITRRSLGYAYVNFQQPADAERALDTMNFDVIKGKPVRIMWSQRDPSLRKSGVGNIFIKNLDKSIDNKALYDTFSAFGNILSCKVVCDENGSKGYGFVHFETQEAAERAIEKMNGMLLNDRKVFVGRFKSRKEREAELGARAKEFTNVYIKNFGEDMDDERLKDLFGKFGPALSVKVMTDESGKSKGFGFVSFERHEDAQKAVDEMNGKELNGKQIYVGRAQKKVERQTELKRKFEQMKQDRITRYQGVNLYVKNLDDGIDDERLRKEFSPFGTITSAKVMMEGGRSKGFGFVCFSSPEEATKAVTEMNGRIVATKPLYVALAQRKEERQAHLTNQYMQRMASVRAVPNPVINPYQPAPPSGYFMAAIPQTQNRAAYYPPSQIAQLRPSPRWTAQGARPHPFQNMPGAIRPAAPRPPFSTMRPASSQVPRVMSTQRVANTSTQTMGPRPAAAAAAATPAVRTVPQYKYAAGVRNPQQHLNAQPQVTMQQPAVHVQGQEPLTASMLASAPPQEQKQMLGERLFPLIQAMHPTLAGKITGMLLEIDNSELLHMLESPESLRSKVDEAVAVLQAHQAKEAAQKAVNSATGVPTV
structure (smiles),measurement,setting,value
COc1ccc(-c2cc(-c3ccc(Br)cc3)nc3ncnn23)cc1OC,IC50,[1],52.8 µM (active)
Cc1cc(C(=O)NNC(=O)CCCCC(=O)NNC(=O)c2cc(C)n[nH]2)[nH]n1,EC50,[2],15.5 µM (active)
Cc1ccc(-c2nn3c(C)nnc3c3ccccc23)cc1S(=O)(=O)NC(C)c1ccccc1 (configuration not stated),IC50,[3],7.48 µM (active)
same,IC50,H9c2,35.8 µM (inactive)
same,IC50,[4],10.4 µM (not active)
same,EC50,[5],> 112 µM (not active)
same,IC50,[6],20.3 µM (not active)
same,EC50,[7],> 112 µM (not active)
O=C(NNc1nc2ccccc2s1)C1CC1,EC50,[8],> 55.7 µM (not active)
same,EC50,[9],> 55.7 µM (not active)
Cc1ccc(NC(=O)CN2C(=O)N/C(=C/c3ccccc3OCc3cccc(C(=O)O)c3)C2=O)cc1,IC50,[10],11.1 µM (active)
same,IC50,[11],> 100 µM (inactive)
same,IC50,[12],8.36 µM (active)
same,IC50,[13],> 100 µM (inactive)
Nc1ccc(S(=O)(=O)NNC(=O)C(=O)NNc2ccccn2)cc1,EC50,[2],26.5 µM (active)
same,EC50,[14],137 µM (active)
Oc1cc(CSc2nnnn2-c2ccccc2)nc(Nc2ccc(F)cc2)n1,IC50,[1],38.2 µM (active)
COC(=O)c1ccc(-c2nc3cc(N)ccc3o2)cc1,EC50,[15],0.2 µM (active)
same,EC50,HT-1080,> 50 µM (not active)
NNc1nnc2c3cc(F)ccc3n(Cc3ccccc3)c2n1,AC50,HeLa,217 µM (active)
O=C(CCCC(=O)N/N=C/c1ccccc1C(=O)O)N/N=C/c1ccccc1C(=O)O,EC50,[8],> 55.7 µM (not active)
same,EC50,[9],> 55.7 µM (not active)
